The source made the active and inactive calls.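 How the source made its calls: active means minimum cell viability of 80% or lower across the dose range, counted as toxic; inactive means minimum cell viability above 80%.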
Assay: viability loss in fusion assay cells – cell-based, MAGI and MAGI-HeLa co-culture, cytotoxicity control for HIV-1 fusion inhibitor project, dose response (AID 2286);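 further: cells exposed to compound for at least 64 h before ATP readout; 100% = median of DMSO vehicle wells with no ATP signal meaning 0%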
Conditions: MAGI-CCR5 cells viability, CellTiter-Glo ATP luminescence; for minimum viability: measured here: MAGI minimum viability across doses
[1] = MAGI-HeLa co-culture viability, at 50 µM, stronger effect = lower value
[2] = at 12.5 µM, stronger effect = lower value
[3] = at 1.56 µM, stronger effect = lower value
[4] = at 3.13 µM, stronger effect = lower value

| Compound | viability [1] [%] | viability (at 50 µM (top of the series)) | minimum viability (at 50 µM, stronger effect = lower value) [%] | further results |
| --- | --- | --- | --- | --- |
| O=C1NN(c2ccc(F)c(Cl)c2)C(=O)/C1=C\c1cccc(OC(=O)c2cccs2)c1 | 111 | 92.7% (inactive) | 92.7 | – |
| CCS(=O)(=O)C1=NSC2=NC(=O)/C(=C\c3ccc(OS(=O)(=O)c4ccccc4)c(OC)c3)C(=N)N21 | 101 | 80.5% (inactive) | 80.5 | – |
| O=C(CCCN1C(=O)/C(=C/c2cccs2)SC1=S)Nc1ccc(O)c(C(=O)O)c1 | 106 | – | 62.3 | – |
| CCOc1cc(/C=C2/C(=N)N3C(=NC2=O)SN=C3S(=O)(=O)C(C)C)ccc1OC(=O)c1ccco1 | 103 | 91.5% (inactive) | – | minimum viability [2]: 86.8% |
| N=C1/C(=C\c2ccc(-c3cccc(C(=O)O)c3)o2)C(=O)N=C2SC=C(c3ccccc3)N12 | 103 | 81% (inactive) | – | minimum viability [2]: 80.3% |
| Cc1c(CC(=O)O)c(=O)oc2c(C)c3occ(-c4ccc(Br)cc4)c3cc12 | 123 | – | 75.8 | – |
| CCOc1cc(/C=N/N=C2/NC(=O)C(CC(=O)O)S2)ccc1OCc1ccc(Cl)cc1Cl (stereo unspecified) | 98.7 | 96% (inactive) | – | minimum viability [2]: 83.9% |
| N#Cc1c(-c2ccccc2)nc(SCc2cccc(C(F)(F)F)c2)[nH]c1=O | 115 | 82.1% (inactive) | 82.1 | – |
| CCc1nnc(NS(=O)(=O)c2ccc(NC(=O)/C=C/c3ccccc3Cl)cc2)s1 | 109 | 96.3% (inactive) | – | minimum viability [3]: 95.9% |
| CC(C)S(=O)(=O)C1=NSC2=NC(=O)/C(=C\c3ccc(-c4ccccc4)o3)C(=N)N21 | 123 | – | 73.2 | – |
| CCc1nnc(NS(=O)(=O)c2ccc(NC(=S)NC(=O)/C=C/c3ccc(F)cc3)cc2)s1 | 115 | 89.6% (inactive) | – | minimum viability [2]: 83.8% |
| COc1ccc(C(=O)Oc2ccc(/C=N/Nc3ccc(Cl)c(C(=O)O)c3)cc2OC)cc1 | 104 | 80.5% (inactive) | 80.5 | – |
| O=C(CCN1C(=O)/C(=C\c2ccccc2F)SC1=S)Nc1ccc(C(=O)O)c(O)c1 | 114 | 93.9% (inactive) | – | minimum viability [4]: 85.5% |
| O=C(O)COc1ccc(/C=N/NC(=O)c2ccc(-c3csc(Nc4ccc(Cl)cc4)n3)cc2)cc1 | 96.5 | 96.8% (inactive) | – | minimum viability (at 25 µM, stronger effect = lower value): 83.4% |
| CC1=NN(c2ccc(C(=O)O)cc2)C(=O)/C1=C\c1ccc(OC(=O)c2cccs2)cc1 | 120 | 94.8% (inactive) | – | minimum viability [3]: 93.5% |
| Cc1cccc(OCC(=O)Nc2ccc(C(=O)Nc3ccccc3C(=O)O)cc2)c1C | 93 | – | 76.6 | – |
| COc1cc(Cl)cc(C(c2c(C(=O)O)[nH]c3ccccc23)c2c(C(=O)O)[nH]c3ccccc23)c1O | 100 | – | – | viability (at 25 µM (top of the series)): 80.5% (inactive); minimum viability (at 25 µM, stronger effect = lower value): 80.5% |
| Cc1ccc(-c2cc(C(=O)Nc3ccc(S(=O)(=O)Nc4onc(C)c4C)cc3)c3ccccc3n2)cc1 | 89.9 | 98.7% (inactive) | – | minimum viability [4]: 86% |
| Cc1c(Cl)cccc1NS(=O)(=O)c1ccc2c(c1)C1C=CCC1C(c1ccc(C(=O)O)cc1)N2 (stereo unspecified) | 121 | 91% (inactive) | – | minimum viability [3]: 87% |
| O=C(O)c1ccccc1NS(=O)(=O)c1ccc(NNC(=S)Nc2ccc(OC(F)F)cc2)c([N+](=O)[O-])c1 | 86.2 | 101% (inactive) | – | minimum viability [4]: 93% |
| CC(C)NC(=O)c1sc(=S)n2c1[nH]c(=O)c1ccc(C(=O)NCCc3ccc(Cl)cc3)cc12 | 104 | – | 55.2 | – |
| Cc1ccc(NS(=O)(=O)c2ccc(N/N=C/c3ccccc3OCC(=O)O)c([N+](=O)[O-])c2)c(C)c1 | 101 | 108% (inactive) | – | minimum viability (at 0.39 µM, stronger effect = lower value): 88.5% |
| Cc1c(CCC(=O)O)c(=O)oc2c(C)c3occ(-c4ccc(Br)cc4)c3cc12 | 97.7 | – | – | minimum viability [2]: 72.5% |
| O=C(O)CN1C(=O)/C(=C\c2cc(Br)ccc2OCc2ccc(F)cc2)SC1=S | 91.5 | 97.7% (inactive) | 97.7 | – |
| Cc1ccc(NC(=O)COc2cccc(/C=C3\SC(=S)N(CCC(=O)O)C3=O)c2)cc1Cl | 94 | – | 77 | – |
| N#Cc1c(SCC(=O)Nc2nc3ccc(Br)cc3s2)sc2c(O)cc(=O)[nH]c12 | 81.1 | 83.3% (inactive) | 83.3 | – |
| Cc1ccccc1N/N=C/c1sc(=O)n(Cc2cccc(C(=O)O)c2)c1Cl | 109 | – | 72.9 | – |

| Compound | viability [1] [%] | viability (at 50 µM (top of the series)) | minimum viability (at 50 µM, stronger effect = lower value) [%] | further results |
| --- | --- | --- | --- | --- |
| COc1cc(/C=C2\C(=N)N3N=C(S(C)(=O)=O)SC3=NC2=O)ccc1OS(=O)(=O)c1ccccc1 | 113 | 91.8% (inactive) | 91.8 | – |
| COc1cc(/C=C2/C(=N)N3C(=NC2=O)SN=C3S(C)(=O)=O)ccc1OS(=O)(=O)c1ccccc1 | 94.8 | 87% (inactive) | – | minimum viability (at 25 µM, stronger effect = lower value): 84.7% |
| COc1ccccc1OCCOc1ccc(/C=C2\C(=N)N3N=C(S(C)(=O)=O)SC3=NC2=O)cc1 | 98.1 | 89.2% (inactive) | 89.2 | – |
| CCCCCCc1c(C)c2ccc(OCC(=O)N[C@@H](Cc3ccccc3)C(=O)O)cc2oc1=O | 101 | 96.7% (inactive) | – | minimum viability [4]: 90.1% |
| O=C1N/C(=N\S(=O)(=O)c2ccccc2)S/C1=C\c1cc([N+](=O)[O-])ccc1O | 107 | 93.8% (inactive) | – | minimum viability [2]: 88.1% |
| O=c1oc2ccccc2c(O)c1C(c1ccc([N+](=O)[O-])cc1)c1c(O)c2ccccc2oc1=O | 133 | – | 68.8 | – |
| O=C(COc1ccc(Cl)cc1Cl)Nc1ccc(C(=O)Nc2ccccc2C(=O)O)cc1 | 92.6 | – | 71.9 | – |
| CC(c1ccccc1)N1C(=O)c2ccc(C(=O)Nc3ccccc3C(=O)O)cc2C1=O (stereo unspecified) | 111 | 100% (inactive) | – | minimum viability (at 25 µM, stronger effect = lower value): 85.5% |
| COc1ccc(-c2nn(-c3ccccc3)cc2/C=C\C(=O)Nc2ccc(C(=O)O)cc2)cc1 | 93.2 | – | 73 | – |
| O=C(O)c1ccccc1N=Nc1c(O)[nH]c2ccc([N+](=O)[O-])cc12 | 87.3 | 90.2% (inactive) | 90.2 | – |
| NS(=O)(=O)c1cc(C(=O)NC2CCSc3ccccc32)ccc1Cl (stereo unspecified) | 103 | 84.3% (inactive) | 84.3 | – |
| COC(=O)c1sc(-c2ccc(C(C)(C)C)cc2)cc1NC(=O)c1ccccc1C(=O)O | 111 | – | 73.7 | – |
| COc1cc(/C=C2/SC(=S)N(CC(=O)O)C2=O)ccc1OCC(=O)Nc1ccc(C)c(C)c1 | 107 | 103% (inactive) | – | minimum viability (at 0.2 µM, stronger effect = lower value): 98.9% |
| Cc1cc(/C=C2\C(=N)N3N=C(S(C)(=O)=O)SC3=NC2=O)c(C)n1Cc1ccccc1 | 116 | 110% (inactive) | – | minimum viability (at 25 µM, stronger effect = lower value): 106% |
| O=C(O)c1cc(N/N=C/c2ccc(-c3ccccc3)cc2)ccc1Cl | 87.4 | – | 69.9 | – |
| O=C(Nc1cccc(C(F)(F)F)c1)c1cccc(NS(=O)(=O)c2ccc(O)c(C(=O)O)c2)c1 | 107 | 85.7% (inactive) | – | minimum viability (at 25 µM, stronger effect = lower value): 83.3% |
| CC(C)S(=O)(=O)C1=NSC2=NC(=O)/C(=C\c3ccc(-c4cccc(C(=O)O)c4)o3)C(=N)N21 | 90.9 | 101% (inactive) | – | minimum viability [4]: 85.2% |
| O=C1NN(c2ccc(Cl)cc2)C(=O)/C1=C\c1ccc(-c2cccc(C(=O)O)c2)o1 | 81.8 | 83.3% (inactive) | 83.3 | – |
| CCCOc1ccc(C(=O)NNC(=S)NC(=O)c2cc(-c3ccc(Cl)cc3)nc3ccccc23)cc1 | 89.5 | 98% (inactive) | – | minimum viability [4]: 87.2% |
| COc1cc(/C=C2\SC(=O)N(CC(=O)Nc3cccc(C)c3)C2=O)cc([N+](=O)[O-])c1O | 111 | – | 74.5 | – |
| COc1ccc(N=C2S/C(=C\c3ccc(OC(C)C(=O)O)c(OC)c3)C(=O)N2CCc2c[nH]c3ccccc23)cc1 (stereo unspecified) | 148 | – | 70.5 | – |
| O=C(N/N=C/c1cc(Br)c(O)c(Br)c1)c1cc2c(ccc3ccccc32)o1 | 112 | – | – | viability (at 25 µM (top of the series)): 81.4% (inactive); minimum viability (at 25 µM, stronger effect = lower value): 81.4% |
| Cc1cccc(S(=O)(=O)Nc2nc3ccccc3nc2Nc2cccc(C(=O)O)c2)c1 | 100 | 88.6% (inactive) | 88.6 | – |
| O=C(O)CSc1cc(C(=O)c2cc(F)ccc2O)cn2c(=O)c3c(-c4ccccc4)csc3nc12 | 88 | – | 56.4 | – |
| O=C(O)c1[nH]c2ccccc2c1C(c1ccccc1)c1c(C(=O)O)[nH]c2ccccc12 | 93.2 | 86% (inactive) | – | minimum viability [2]: 81.8% |
| O=C(O)c1cccc2c(-c3ccccc3)c(-c3ccccc3)[nH]c12 | 128 | 93.1% (inactive) | 93.1 | – |
| O=C1NC(=O)/C(=C/c2ccc(-c3cc(C(=O)O)ccc3Cl)o2)S1 | 105 | 91% (inactive) | – | minimum viability (at 6.25 µM, stronger effect = lower value): 88.5% |
